This test has as its target T1, IRAK4 (Homo sapiens, UniProt Q9NWZ3).
T1 construct: Degradation of IRAK4 in OCI-LY10 was quantitatively measured using Meso Scale Discovery technology; endogenous in cells; host or cells: OCI-LY10
T1 sequence (Q9NWZ3 1-460): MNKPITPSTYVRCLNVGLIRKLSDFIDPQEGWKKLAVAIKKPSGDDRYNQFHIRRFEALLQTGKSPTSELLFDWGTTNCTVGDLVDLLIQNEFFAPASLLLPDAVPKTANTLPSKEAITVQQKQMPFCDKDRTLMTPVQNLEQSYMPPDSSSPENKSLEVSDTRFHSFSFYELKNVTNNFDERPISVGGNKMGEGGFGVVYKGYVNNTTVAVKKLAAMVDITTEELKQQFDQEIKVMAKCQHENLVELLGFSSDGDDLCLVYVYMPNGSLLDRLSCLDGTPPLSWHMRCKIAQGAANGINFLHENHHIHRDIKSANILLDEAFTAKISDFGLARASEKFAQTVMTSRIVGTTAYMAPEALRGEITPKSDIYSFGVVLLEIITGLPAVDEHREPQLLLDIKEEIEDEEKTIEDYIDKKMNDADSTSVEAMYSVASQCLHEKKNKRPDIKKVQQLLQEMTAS
Put plainly: IRAK4 MSD Degradation in OCI-LY10. Format: cell-based. The note with it: OCI-LY10 cells, MSD. The method, boiled down:
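DC50, from a three-parameter logistic fit and reported as letter bins A (<0.01 μM), B, C, D (>0.2 μM or not tested), reflects IRAK4 loss measured by MSD electrochemiluminescence in OCI-LY10 lysates. Treatment: 8 doses, 1:3 steps, top 1 to 10 μM, 4 to 24 h, 37 °C.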

[1] abbreviates: 4 hrs incubation, read-out: IRAK4 degradation in OCI-LY10 at 4 hrs: DC50.
The mark [2] stands for this setting: 24 hrs incubation, read-out: IRAK4 degradation in OCI-LY10 at 24 hrs: DC50.

Where two headings read alike, the source gives them in different places.

The term DC50 denotes the concentration giving 50% degradation.

Turning to `Cn1c(=O)n(C2CCC(=O)NC2=O)c2cccc(C3CCN(C[C@H]4CC[C@H](n5cc6cc(NC(=O)c7cccc(C(F)(F)F)n7)ncc6n5)CC4)CC3(F)F)c21` (some centres unmarked) [I-488], the DC50 is, setting by setting: under setting [1], over 200 nM; under setting [2], over 200 nM.

As to `Cn1c(=O)n(C2CCC(=O)NC2=O)c2cccc(C3CCN(C[C@H]4CC[C@H](n5cc6cc(NC(=O)c7cccc(C(F)(F)F)n7)ccc6n5)CC4)CC3(F)F)c21` (some centres unmarked) [I-489], the DC50 was over 200 nM under setting [1] and over 200 nM under setting [2].

On to `Cn1c(=O)n(C2CCC(=O)NC2=O)c2cccc(C3CCN(C[C@H]4CC[C@H](n5cc6cc(NC(=O)c7cccc(C(F)(F)F)n7)c(C#N)cc6n5)CC4)CC3(F)F)c21` (some centres unmarked) [I-490], for which the 50% degradation concentration (DC50) is, setting by setting: under setting [1], over 200 nM; under setting [2], over 200 nM.

Take `CO[C@@H]1CN(c2cccc3c2n(C)c(=O)n3C2CCC(=O)NC2=O)C[C@@H]1N(C)C[C@H]1CC[C@H](n2cc3cc(NC(=O)c4cccc(C(F)(F)F)n4)ccc3n2)CC1` (some centres unmarked) [I-491]: the DC50 reads like this: under setting [1], over 200 nM; under setting [2], over 200 nM.

On to `CO[C@H]1CN(c2cccc3c2n(C)c(=O)n3C2CCC(=O)NC2=O)C[C@@H]1N(C)C[C@H]1CC[C@H](n2cc3cc(NC(=O)c4cccc(C(F)(F)F)n4)ccc3n2)CC1` (some centres unmarked) [I-492], for which the half-maximal degradation concentration (DC50) by setting is: under setting [1], over 200 nM; under setting [2], over 200 nM.

For the molecule `CO[C@H]1CN(c2cccc3c2n(C)c(=O)n3C2CCC(=O)NC2=O)C[C@H]1N(C)C[C@H]1CC[C@H](n2cc3cc(NC(=O)c4cccc(C(F)(F)F)n4)ccc3n2)CC1` (some centres unmarked) [I-493], the DC50 was over 200 nM under setting [1] and over 200 nM under setting [2].

For the molecule `CO[C@@H]1CN(c2cccc3c2n(C)c(=O)n3C2CCC(=O)NC2=O)C[C@H]1N(C)C[C@H]1CC[C@H](n2cc3cc(NC(=O)c4cccc(C(F)(F)F)n4)ccc3n2)CC1` (some centres unmarked) [I-494], the DC50 reads like this: under setting [1], over 200 nM; under setting [2], over 200 nM.

Consider `CO[C@@H]1CN(c2cccc3c2n(C)c(=O)n3C2CCC(=O)NC2=O)CC[C@H]1N(C)C[C@H]1CC[C@H](n2cc3cc(NC(=O)c4cccc(C(F)(F)F)n4)ccc3n2)CC1` (some centres unmarked) [I-495], for which the DC50 is, setting by setting: under setting [1], over 200 nM; under setting [2], over 200 nM.

As to `CO[C@H]1CN(c2cccc3c2n(C)c(=O)n3C2CCC(=O)NC2=O)CC[C@@H]1N(C)C[C@H]1CC[C@H](n2cc3cc(NC(=O)c4cccc(C(F)(F)F)n4)ccc3n2)CC1` (some centres unmarked) [I-496], the DC50 is over 200 nM under setting [1] and over 200 nM under setting [2].

For `CO[C@@H]1CN(c2cccc3c2n(C)c(=O)n3C2CCC(=O)NC2=O)CC[C@@H]1N(C)C[C@H]1CC[C@H](n2cc3cc(NC(=O)c4cccc(C(F)(F)F)n4)ccc3n2)CC1` (some centres unmarked) [I-497], the DC50 under setting [1] was over 200 nM and the DC50 under setting [2] was over 200 nM.

On to `CO[C@H]1CN(c2cccc3c2n(C)c(=O)n3C2CCC(=O)NC2=O)CC[C@H]1N(C)C[C@H]1CC[C@H](n2cc3cc(NC(=O)c4cccc(C(F)(F)F)n4)ccc3n2)CC1` (some centres unmarked) [I-498], for which the 50% degradation concentration (DC50) under setting [1] was over 200 nM and the DC50 under setting [2] was over 200 nM.

On to `Cn1c(=O)n(C2CCC(=O)NC2=O)c2cccc(N3CC(F)(F)C34CN(C[C@H]3CC[C@H](n5cc6cc(NC(=O)c7cccc(C(F)(F)F)n7)ccc6n5)CC3)C4)c21` (some centres unmarked) [I-499], for which the DC50 runs as follows: under setting [1], over 200 nM; under setting [2], over 200 nM.

Consider `Cn1c(=O)n(C2CCC(=O)NC2=O)c2cccc(N3CC4(C3)N(C[C@H]3CC[C@H](n5cc6cc(NC(=O)c7cccc(C(F)(F)F)n7)ccc6n5)CC3)CC4(F)F)c21` (some centres unmarked) [I-500], for which the DC50 is, setting by setting: under setting [1], over 200 nM; under setting [2], over 200 nM.

In the case of `Cn1c(=O)n(C2CCC(=O)NC2=O)c2cccc(C#CCN3CC4(C3)N(C[C@H]3CC[C@H](n5cc(NC(=O)c6cnn7ccc(N8CCCC8)nc67)c(C(F)F)n5)CC3)CC4(F)F)c21` (some centres unmarked) [I-501], the DC50 runs as follows: under setting [1], over 200 nM; under setting [2], over 200 nM.

Consider `CN(C[C@H]1CC[C@H](n2cc(NC(=O)c3cnn4ccc(N5C[C@H]6C[C@@H]5CO6)nc34)c(C(F)F)n2)CC1)C1CCN(c2cccc3c2n(C)c(=O)n3C2CCC(=O)NC2=O)CC1(F)F` (some centres unmarked) [I-502], for which the DC50 under setting [1] is over 200 nM and the DC50 under setting [2] is over 200 nM.

On to `CN(CC[C@H]1CC[C@H](n2cc(NC(=O)c3cnn4cccnc34)c(C(F)F)n2)CC1)C1CCN(c2cccc3c2n(C)c(=O)n3C2CCC(=O)NC2=O)CC1(F)F` (some centres unmarked) [I-503], for which the DC50 was over 200 nM under setting [1] and over 200 nM under setting [2].

On to `CN(C[C@H]1CC[C@H](n2cc(NC(=O)c3cnn4ccc(N5CCC5)nc34)c(C(F)F)n2)CC1)C1CCN(c2cccc3c2n(C)c(=O)n3C2CCC(=O)NC2=O)CC1(F)F` (some centres unmarked) [I-504], for which the half-maximal degradation concentration (DC50) was over 200 nM under setting [1] and over 200 nM under setting [2].

On to `CN(C[C@H]1CC[C@H](n2cc(NC(=O)c3cnn4ccc(N5CC(C)(C)C5)nc34)c(C(F)F)n2)CC1)C1CCN(c2cccc3c2n(C)c(=O)n3C2CCC(=O)NC2=O)CC1(F)F` (some centres unmarked) [I-505], for which the DC50 is over 200 nM under setting [1] and over 200 nM under setting [2].

As for `CN(C[C@H]1CC[C@H](n2cc(NC(=O)c3cnn4ccc(N5CC6(CC6)C5)nc34)c(C(F)F)n2)CC1)C1CCN(c2cccc3c2n(C)c(=O)n3C2CCC(=O)NC2=O)CC1(F)F` (some centres unmarked) [I-506], the DC50 is over 200 nM under setting [1] and over 200 nM under setting [2].

With `CN(C[C@H]1CC[C@H](n2cc(NC(=O)c3cnn4ccc(N5CC(F)(F)C5)nc34)c(C(F)F)n2)CC1)C1CCN(c2cccc3c2n(C)c(=O)n3C2CCC(=O)NC2=O)CC1(F)F` (some centres unmarked) [I-507], the DC50 under setting [1] is over 200 nM and the DC50 under setting [2] was over 200 nM.

As for `CN(C[C@H]1CC[C@H](n2cc(NC(=O)c3cnn4ccc(N5CC(O)C5)nc34)c(C(F)F)n2)CC1)C1CCN(c2cccc3c2n(C)c(=O)n3C2CCC(=O)NC2=O)CC1(F)F` (some centres unmarked) [I-508], the half-maximal degradation concentration (DC50) under setting [1] is over 200 nM and the 50% degradation concentration (DC50) under setting [2] is over 200 nM.

Turning to `CN(C[C@H]1CC[C@H](n2cc(NC(=O)c3cnn4ccc(N5CC6(COC6)C5)nc34)c(C(F)F)n2)CC1)C1CCN(c2cccc3c2n(C)c(=O)n3C2CCC(=O)NC2=O)CC1(F)F` (some centres unmarked) [I-509], the DC50 is, setting by setting: under setting [1], over 200 nM; under setting [2], 10 to 100 nM.

Consider `CN(C[C@H]1CC[C@H](n2cc(NC(=O)c3cnn4ccc(N5CC6(CCCOC6)C5)nc34)c(C(F)F)n2)CC1)C1CCN(c2cccc3c2n(C)c(=O)n3C2CCC(=O)NC2=O)CC1(F)F` (some centres unmarked) [I-510], for which the DC50 under setting [1] is over 200 nM and the half-maximal degradation concentration (DC50) under setting [2] is 10 to 100 nM.

Take `CN(C[C@H]1CC[C@H](n2cc(NC(=O)c3cnn4ccc(N5CC6(CCOCC6)C5)nc34)c(C(F)F)n2)CC1)C1CCN(c2cccc3c2n(C)c(=O)n3C2CCC(=O)NC2=O)CC1(F)F` (some centres unmarked) [I-511]: the DC50 was over 200 nM under setting [1] and 10 to 100 nM under setting [2].

Take `CN(C[C@H]1CC[C@H](n2cc(NC(=O)c3cnn4ccc(N5CCCC5)nc34)c(C(F)F)n2)CC1)C1CCN(c2cccc3c2n(C)c(=O)n3C2CCC(=O)NC2=O)CC1(F)F` (some centres unmarked) [I-512]: the half-maximal degradation concentration (DC50) under setting [1] was over 200 nM and the DC50 under setting [2] fell in the range of 10 to 100 nM.

As to `CN(C[C@H]1CC[C@H](n2cc(NC(=O)c3cnn4ccc(N5CCCC5(C)C)nc34)c(C(F)F)n2)CC1)C1CCN(c2cccc3c2n(C)c(=O)n3C2CCC(=O)NC2=O)CC1(F)F` (some centres unmarked) [I-513], the DC50 under setting [1] is over 200 nM and the half-maximal degradation concentration (DC50) under setting [2] is over 200 nM.

Take `CN(C[C@H]1CC[C@H](n2cc(NC(=O)c3cnn4ccc(N5CCCC56CC6)nc34)c(C(F)F)n2)CC1)C1CCN(c2cccc3c2n(C)c(=O)n3C2CCC(=O)NC2=O)CC1(F)F` (some centres unmarked) [I-514]: the DC50 by setting is: under setting [1], over 200 nM; under setting [2], over 200 nM.

In the case of `CN(C[C@H]1CC[C@H](n2cc(NC(=O)c3cnn4ccc(N5CCCCC5)nc34)c(C(F)F)n2)CC1)C1CCN(c2cccc3c2n(C)c(=O)n3C2CCC(=O)NC2=O)CC1(F)F` (some centres unmarked) [I-515], the DC50 reads like this: under setting [1], over 200 nM; under setting [2], 10 to 100 nM.

As to `CN(C[C@H]1CC[C@H](n2cc(NC(=O)c3cnn4ccc(N5CCC(C)(C)CC5)nc34)c(C(F)F)n2)CC1)C1CCN(c2cccc3c2n(C)c(=O)n3C2CCC(=O)NC2=O)CC1(F)F` (some centres unmarked) [I-516], the DC50 by setting is: under setting [1], over 200 nM; under setting [2], over 200 nM.

As for `CN(C[C@H]1CC[C@H](n2cc(NC(=O)c3cnn4ccc(N5CCCC(C)(C)C5)nc34)c(C(F)F)n2)CC1)C1CCN(c2cccc3c2n(C)c(=O)n3C2CCC(=O)NC2=O)CC1(F)F` (some centres unmarked) [I-517], the DC50 is over 200 nM under setting [1] and over 200 nM under setting [2].

Take `CN(C[C@H]1CC[C@H](n2cc(NC(=O)c3cnn4ccc(N5CCCCC5(C)C)nc34)c(C(F)F)n2)CC1)C1CCN(c2cccc3c2n(C)c(=O)n3C2CCC(=O)NC2=O)CC1(F)F` (some centres unmarked) [I-518]: the DC50 is over 200 nM under setting [1] and over 200 nM under setting [2].

For `CN(C[C@H]1CC[C@H](n2cc(NC(=O)c3cnn4ccc(N5CCC(F)(F)CC5)nc34)c(C(F)F)n2)CC1)C1CCN(c2cccc3c2n(C)c(=O)n3C2CCC(=O)NC2=O)CC1(F)F` (some centres unmarked) [I-519], the DC50 reads like this: under setting [1], over 200 nM; under setting [2], over 200 nM.

On to `CC1CCN(c2ccn3ncc(C(=O)Nc4cn([C@H]5CC[C@H](CN(C)C6CCN(c7cccc8c7n(C)c(=O)n8C7CCC(=O)NC7=O)CC6(F)F)CC5)nc4C(F)F)c3n2)CC1` (some centres unmarked) [I-520], for which the DC50 under setting [1] is over 200 nM and the DC50 under setting [2] was over 200 nM.

In the case of `CN(C[C@H]1CC[C@H](n2cc(NC(=O)c3cnn4ccc(N5CCC6(CC5)CC6)nc34)c(C(F)F)n2)CC1)C1CCN(c2cccc3c2n(C)c(=O)n3C2CCC(=O)NC2=O)CC1(F)F` (some centres unmarked) [I-521], the DC50 was over 200 nM under setting [1] and over 200 nM under setting [2].

(Values after patent US12091411B2, “IRAK degraders and uses thereof” (Kymera Therapeutics, Inc., priority 2022, dated 2024).)
